According to US11065335B2, “Methods of treating leukemia using compositions containing bis(benzylthio)octanoic acid and ion pairs thereof” (Rafael Pharmaceuticals, Inc., priority 2007, dated 2021):
Counter-ions that a name gives are not always drawn.

Assays:
[1] = system: A2780 human ovarian cancer cells; test: CellTiter Glo cell viability assay, A2780 cells
Procedure: (§1) Two types of human tumor cells were used in this investigation: BXPC3 human pancreatic cancer cells and A2780 human ovarian cancer cells. The BXPC3 cells were originally obtained from American Type Cell Culture (ATCC). The ovarian tumor cells were gifts from Roswell Park Cancer Institute, Buffalo, N.Y. All tumor cells were maintained at 37° C. in a humidified 5% CO2 atmosphere in T75 tissue culture flasks containing 20 mL of Roswell Park Memorial Institute (RPMI) 1640 containing 2 mM L-glutamine, 10% fetal bovine serum (FBS) and 1% penicillin and streptomycin (100 IU/mL penicillin and 100 μg/mL streptomycin). The tumor cells were split at a ratio of 1:5 every 4-5 days by trypsinization and resuspended in fresh medium in a new flask. Cells were harvested for experiments at 70-90% confluency.
(§2) CPI-613 (i.e., 6,8-bis(benzylthio)octanoic acid) stock solutions at concentrations of 8, 4, 2, 1.5 and 0.5 mM were prepared in the appropriate vehicles. The molar ratio of vehicle to CPI-613 was maintained at 8:1. The corresponding vehicle concentrations were 64, 32, 16, 12, and 4 mM respectively. A sixty-four mM aliquot of vehicle was dissolved in 10 mL of water. Next, 8 mM of CPI-613 was added and the mixture was stirred until a clear solution was obtained. […] A 5 μL aliquot of this stock solution was added to 95 μL of tumor cells in media. Upon dilution in the wells, the corresponding drug concentrations were 400, 200, 100, 75 and 25 μM respectively.
(§3) For the sodium salt and potassium salt form of CPI-613, 1 equivalent of CPI-613 solid was dissolved in water. Sixty-two mg of CPI-613 (0.00016 mol) was added to 10 mL of water, then 165 μL of 1M NaOH or KOH was added and stirred until a clear solution was obtained. This gave a 16 mM solution. The resulting 16 mM solution was then serially diluted, thereby providing 8 mM and 4 mM solutions of the CPI-613 salt form. For the ammonium salt, vehicle to drug ratio was maintained at 8:1 and the formulation was prepared using procedures analogous to those described above in Section 2 relating to preparation of CPI-613 formulations in different vehicles.
(§4) CPI-613 formulated in 1M triethanolamine (TEA) was used as an internal control during formulation screening. To prepare a 16 mM of working stock of CPI-613, 50 mg/mL of CPI-613 (128.66 mM of CPI-613 in 1M TEA) was diluted in complete cell culture media containing 10% FBS. That is, 310 μL of a 128.66 mM solution of CPI-613 in 1M TEA was added to 2.19 mL of cell culture media. This stock was further diluted serially in complete media to give 8 mM, 4 mM 2 mM, 1.5 mM and 0.5 mM working solutions. On the day of testing, 5 μL of this working solution was added to 95 μL of cell culture media (20 fold dilution) resulting final concentrations of 400, 200, 100, 75 and 25 μM CPI-613, respectively. The ratio of CPI-613 to TEA was maintained at 1:8 ratio at all times.
(§5) The cell viability of CPI-613 formulations formulated at a ratio of 1:8, CPI-613 to vehicle, was assessed by exposing the A2780 ovarian tumor cells and BXPC3 human pancreatic cancer cells to the following CPI-613 concentrations: 400 μM (3200 μM vehicle), 200 μM (1600 μM vehicle), 100 μM (800 μM vehicle), 75 μM (600 μM vehicle) and 25 μM (200 μM vehicle) The impact of corresponding vehicles at 3200, 1600 and 800 μM concentrations was also tested in tumor cells for cell viability. […] CPI-613 in TEA was used as an internal control. The tumor cells were treated for 24 hrs with the test article in serum-containing medium. After 24 hrs of treatment the number of viable tumor cells was determined.
(§6) The number of cells targeted for the study was 4×10^3 per well in 100 μL of medium. The actual number of cells were counted and seeded in the wells of a 96 well-plate. The cells were incubated for ˜24 hrs before addition of CPI-613.
(§7) For each cell line the concentrations of test articles or vehicles specified above was used.

[2] = system: BXPC3 human pancreatic cancer cells; test: CellTiter Glo cell viability assay, BXPC3 cells
Procedure: as §1, §2, §3, §4, §5, §6, §7

[3] = system: BXPC3 human pancreatic cancer cells; test: PI/Annexin Alexa Fluor 488 staining, FACS, type of cell death; assay type: cell-based; details: 300 μM of CPI-613; 24 hours
From the text: Apoptotic cells will stain Annexin V positive but PI negative because the PI cannot cross the intact cell membrane. Necrotic cells will stain positive for both Annexin V and PI because the cell membrane is not intact.
BxPC3 human pancreatic cancer cells were used in this investigation. These tumor cells were originally obtained from American Type Cell Culture (ATCC, Manassas, Va.). […] Cells were split at a ratio of 1:10 every 2-3 days by trypsinization and resuspended in fresh medium in a new flask. Cells were harvested for experiments in the same way at 70-90% confluency.
2) A 1 mL aliquot of each test condition was added to corresponding well. Each treatment condition was run in duplicate. Cells were incubated for 24 hours with test conditions prior to PI/Annexin Staining.
3) After 24 hours, cells, including floating cells, with media were harvested and centrifuged at 1,400 RPM for 5 minutes.
4) For all samples the supernatant was aspired off, and the pellet was resuspended in 3 mL PBS and then centrifuged again at 1,400 RPM for 5 minutes, for a total of 2 washes.
Cells were incubated with PI/Annexin V for 8 minutes.
6) The reaction was stopped by adding 400 μL 1× Annexin V binding buffer.
7) Samples were then taken to FACS facility to be read on the FACS Scan Flow Cytometer.

[4] = salt formulation at 200 μM, 24 hrs
[5] = salt formulation at 400 μM, 24 hrs

## O=C(O)CCCCC(CCSCc1ccccc1)SCc1ccccc1 (stereo not drawn) [CPI-613 sodium salt]
[1]; CPI-613 200 μM, CPI-613 to base 1:1, 24 hrs
  A2780 Cell Viability (alkali salt formulations): ++++ (tumor cell viability of >10% up to 30%)
[1]; Homo sapiens, A2780, 24 h, read-out: A2780 Cell Viability (alkali salt formulations), CPI-613 25 μM, CPI-613 to base 1:1
  viability at 25 µM: 70 to 95%
[1]; Homo sapiens, A2780, 24 h, read-out: A2780 Cell Viability (alkali salt formulations), CPI-613 75 μM, CPI-613 to base 1:1
  viability at 75 µM: 70 to 95%
[1]; Homo sapiens, A2780, 24 h, read-out: A2780 Cell Viability (alkali salt formulations), CPI-613 100 μM, CPI-613 to base 1:1
  viability at 100 µM: 70 to 95%
[1]; Homo sapiens, A2780, 24 h, read-out: A2780 Cell Viability (alkali salt formulations), CPI-613 400 μM, CPI-613 to base 1:1
  viability at 400 µM: < 10%
[1]; [4]
  cell kill in A2780 cells: ~65%
[1]; [5]
  cell kill in A2780 cells: all the cells were killed
[2]; CPI-613 75 μM, CPI-613 to base 1:1, 24 hrs
  BXPC3 Cell Viability (alkali salt formulations): + (tumor cell viability of >95%)
[2]; Homo sapiens, BXPC-3, 24 h, read-out: BXPC3 Cell Viability (alkali salt formulations), CPI-613 25 μM, CPI-613 to base 1:1
  viability at 25 µM: > 95%
[2]; Homo sapiens, BXPC-3, 24 h, read-out: BXPC3 Cell Viability (alkali salt formulations), CPI-613 100 μM, CPI-613 to base 1:1
  viability at 100 µM: 70 to 95%
[2]; Homo sapiens, BXPC-3, 24 h, read-out: BXPC3 Cell Viability (alkali salt formulations), CPI-613 200 μM, CPI-613 to base 1:1
  viability at 200 µM: 30 to 70%
[2]; Homo sapiens, BXPC-3, 24 h, read-out: BXPC3 Cell Viability (alkali salt formulations), CPI-613 400 μM, CPI-613 to base 1:1
  viability at 400 µM: < 10%
[2]; [4]
  cell kill in BXPC3 cells: ~50%
[2]; [5]
  cell kill in BXPC3 cells: all the cells were killed
[3]
  type of cell death (apoptosis or necrosis): higher number of cells in the state of apoptotic death versus the number of cells in the state of necrotic death
